Converted amounts (≈) assume the structure as drawn.
Tests used:
Assay type in all cases: cell-based
[1] = tested on: Ps. aeruginosa; test: Combination MICs for antibiotic adjuvant potential; conditions: compound at 125 μM
Description: (§1) Susceptibilities to the compounds were determined using the National Committee for Clinical Laboratory Standards (NCCLS) M7-A6 broth microdilution method. Cation-adjusted Mueller-Hinton broth (Ca^2+, 25 μg/mL; Mg^2+, 12.5 μg/mL) microdilution panels were prepared to contain antimicrobial doubling dilution concentrations of an appropriate range. DMSO (dimethylsulfoxide) controls were incorporated into the panel to mimic the quantity of DMSO used in dissolving some of the compounds at the higher concentrations. Each final panel well volume was 100 μL with a bacterial inoculum of 5×10^5 CFU (colony forming units)/mL of the relevant bacterium. Panels were read following 16 to 20 h of incubation at 35 degrees Celsius in ambient air. The MIC (minimum inhibitory concentration) was defined as the lowest concentration of antimicrobial inhibiting visible growth.
Generally following the procedure of Example 9, MICs of ampicillin, erythromycin, and azithromycin were determined against Ps. aeruginosa. Parallel to this effort, solutions were prepared which were identical. To each of these were added 0.5 μL of stock solution of a given compound of the present invention, then diluted to produce a final concentration of 125 μM, 60 μM, and/or 30 μM for determination of adjuvant activity. Compounds were determined to be antibiotic adjuvants if the mixture produced a lower MIC than that of the antibiotic agent alone.

[2] = tested on: Bacillus cereus NCTC6349; test: MIC panel of challenge pathogens (CLSI); conditions: Bacillus cereus NCTC6349
Summary of the method: (§2)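 Broth microdilution per CLSI guidelines. Final inoculum 2-8×10^5 CFU/ml, compounds serially two-fold diluted from 128 mg/L top concentration. Incubated in the dark at 30-37° C for 24-48 h, aerobic or anaerobic as appropriate. MIC read visually as 100% inhibition endpoint; MIC50 and MIC80 also reported.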

[3] = tested on: Enterococcus faecalis ATCC51299; test: MIC panel of challenge pathogens (CLSI); conditions: Enterococcus faecalis ATCC51299
Summary of the method: as §2

[4] = tested on: Staphylococcus aureus ATCC43300; test: MIC panel of challenge pathogens (CLSI); conditions: Staphylococcus aureus ATCC43300
Summary of the method: as §2

[5] = tested on: Staphylococcus aureus AUR58 7005; test: MIC panel of challenge pathogens (CLSI); conditions: AUR587005, Staphylococcus aureus AUR58 7005
Summary of the method: as §2

[6] = tested on: Staphylococcus aureus AUR59 7005; test: MIC panel of challenge pathogens (CLSI); conditions: AUR597005, Staphylococcus aureus AUR59 7005
Summary of the method: as §2

[7] = tested on: Staphylococcus aureus EUP MRSA004; test: MIC panel of challenge pathogens (CLSI); conditions: EUPMRSA004, Staphylococcus aureus EUP MRSA004
Summary of the method: as §2

[8] = tested on: Staphylococcus aureus EUP SAU040; test: MIC panel of challenge pathogens (CLSI); conditions: EUPSAU040, Staphylococcus aureus EUP SAU040
Summary of the method: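 CLSI broth microdilution; inoculum 2-8×10^5 CFU/ml; 2-fold series, top 128 mg/L; 30-37° C, 24-48 h, dark; visual read, 100% inhibition endpoint.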

[9] = tested on: Staphylococcus aureus NRS2 (ATCC700698); test: MIC panel of challenge pathogens (CLSI); conditions: Staphylococcus aureus NRS2 (ATCC700698)
Summary of the method: as §2

[10] = tested on: Staphylococcus aureus NRS382; test: MIC panel of challenge pathogens (CLSI); conditions: Staphylococcus aureus NRS382
Summary of the method: as §2

[11] = tested on: Staphylococcus aureus NRS384; test: MIC panel of challenge pathogens (CLSI); conditions: Staphylococcus aureus NRS384
Summary of the method: as §2

[12] = tested on: Staphylococcus epidermidis NRS122; test: MIC panel of challenge pathogens (CLSI); conditions: Staphylococcus epidermidis NRS122
Summary of the method: as §2

[13] = tested on: Staphylococcus aureus EUP MRSA002; test: MIC panel of challenge pathogens (CLSI), EUP MRSA002; conditions: EUPMRSA002, Staphylococcus aureus EUP MRSA002
Summary of the method: as §2

[14] = tested on: Streptococcus pneumoniae Group A; test: MIC against Streptococcus pneumoniae Group A; conditions: initial measurement, Todd Hewitt broth
Description: as §1
Generally following the procedure of Example 9, but using Todd Hewitt broth (beef heart digest) rather than Mueller-Hinton broth, MICs were initially measured against Streptococcus pneumoniae Group A for compounds of the present invention as follows: […]

Q: Which results are given for `CC(C)c1cc(Cl)ccc1-c1cc(-c2nnn[nH]2)sc1-c1ccc(Cl)cc1C(C)C` [DNM0548, 5-(4,5-Bis(4-chloro-2-iso-propylphenyl)thiophen-2-yl)-1H-tetrazole]?
A: fold lower MIC for ampicillin [1]: up to 125 fold; fold lower MIC for erythromycin [1]: up to 125 fold; MIC ([2]; read-out: 100% inhibition): ≤ 0.25 mg/L; MIC50 ([2]; read-out: MIC50 (50%)): ≤ 0.25 mg/L; MIC80 ([2]; read-out: MIC80 (80%)): ≤ 0.25 mg/L; MIC ([3]; read-out: 100% inhibition): ≤ 0.25 mg/L; MIC50 ([3]; read-out: MIC50 (50%)): ≤ 0.25 mg/L; MIC80 ([3]; read-out: MIC80 (80%)): ≤ 0.25 mg/L; MIC ([4]; read-out: 100% inhibition): ≤ 0.25 mg/L; MIC50 ([4]; read-out: MIC50 (50%)): ≤ 0.25 mg/L; MIC80 ([4]; read-out: MIC80 (80%)): ≤ 0.25 mg/L; MIC ([5]; read-out: 100% inhibition): 1 mg/L (≈ 2.19 µM); MIC50 ([5]; read-out: MIC50 (50%)): 1 mg/L (≈ 2.19 µM); MIC80 ([5]; read-out: MIC80 (80%)): 1 mg/L (≈ 2.19 µM); MIC ([6]; read-out: 100% inhibition): 0.5 mg/L (≈ 1.09 µM); MIC50 ([6]; read-out: MIC50 (50%)): 0.5 mg/L (≈ 1.09 µM); MIC80 ([6]; read-out: MIC80 (80%)): 0.5 mg/L (≈ 1.09 µM); MIC ([7]; read-out: 100% inhibition): 0.5 mg/L (≈ 1.09 µM); MIC50 ([7]; read-out: MIC50 (50%)): 0.5 mg/L (≈ 1.09 µM); MIC80 ([7]; read-out: MIC80 (80%)): 0.5 mg/L (≈ 1.09 µM); MIC ([8]; read-out: 100% inhibition): 0.5 mg/L (≈ 1.09 µM); MIC50 ([8]; read-out: MIC50 (50%)): 0.5 mg/L (≈ 1.09 µM); MIC80 ([8]; read-out: MIC80 (80%)): 0.5 mg/L (≈ 1.09 µM); MIC ([9]; read-out: 100% inhibition): 0.5 mg/L (≈ 1.09 µM); MIC50 ([9]; read-out: MIC50 (50%)): 0.5 mg/L (≈ 1.09 µM); MIC80 ([9]; read-out: MIC80 (80%)): 0.5 mg/L (≈ 1.09 µM); MIC ([10]; read-out: 100% inhibition): 0.5 mg/L (≈ 1.09 µM); MIC50 ([10]; read-out: MIC50 (50%)): 0.5 mg/L (≈ 1.09 µM); MIC80 ([10]; read-out: MIC80 (80%)): 0.5 mg/L (≈ 1.09 µM); MIC ([11]; read-out: 100% inhibition): ≤ 0.25 mg/L; MIC50 ([11]; read-out: MIC50 (50%)): ≤ 0.25 mg/L; MIC80 ([11]; read-out: MIC80 (80%)): ≤ 0.25 mg/L; MIC ([12]; read-out: 100% inhibition): 1 mg/L (≈ 2.19 µM); MIC50 ([12]; read-out: MIC50 (50%)): 1 mg/L (≈ 2.19 µM); MIC80 ([12]; read-out: MIC80 (80%)): 1 mg/L (≈ 2.19 µM); MIC ([13]; read-out: 100% inhibition): ≤ 0.25 mg/L; MIC50 ([13]; read-out: MIC50 (50%)): ≤ 0.25 mg/L; MIC80 ([13]; read-out: MIC80 (80%)): ≤ 0.25 mg/L; MIC [14]: < 0.25 µM

Source: patent US9012655B2, “Antimicrobial/adjuvant compounds and methods” (Denouamed, Inc., priority 2011, dated 2015)
